Reference: PMC8945686, “Anticancer Effects with Molecular Docking Confirmation of Newly Synthesized Isatin Sulfonamide Molecular Hybrid Derivatives against Hepatic Cancer Cell Lines” (Biomedicines, 2022)
Values joined by “and” are separate entries in the source; they are usually repeats but may differ in a detail not shown here. Identical values can stand only once.

What was measured:
[1] = In vitro safety/cell viability MTT assay on normal RPE1 cells; assay type: cell-based, human; details: human, RPE1 cells (noncancerous), normal RPE1 cells, MTT
[2] = test system: RPE1 cells; assay: as above; assay type: cell-based, human; details: RPE1, MTT, in words
[3] = test system: mice; assay: In vivo acute (14-day) oral toxicity study; details: for S.ALT / S.AST / S.Creatinine / S.D.Bilirubin / S.T.Bilirubin / S.Urea: 14 days after single dose, doxorubicin 15 mg/kg I.P; for S.ALT / S.AST / S.Creatinine / S.D.Bilirubin / S.T.Bilirubin / S.Urea / Histopathology of liver and kidney tissues (H and E) versus control groups / Kidney histology (H and E photomicrographs) / Liver histology (H and E photomicrographs): compounds 250 mg/kg oral; for Histopathology of liver and kidney tissues (H and E) versus control groups / Kidney histology (H and E photomicrographs) / Liver histology (H and E photomicrographs) / Physical or abnormal changes (body weight, skin, fur, eyes, behavior, overall appearance): 14 days; for Histopathology of liver and kidney tissues (H and E) versus control groups / Kidney histology (H and E photomicrographs) / Liver histology (H and E photomicrographs): Dox 15 mg/kg i.p.; for Survival over the treatment period (14 days) / Physical or abnormal changes (body weight, skin, fur, eyes, behavior, overall appearance): single acute oral dose of 250 mg/kg
Text: GPower 3.0.10 software was used to estimate the sample size needed for the experiment and the number of mice per group but, according to the Organization for Economic Cooperation and Development (OECD) Test Guidelines No. 407 (OECD, 2008 and updated 2017) and under the International Academy of Science’s Guide for the Care and Use of Laboratory Animals, as well as the ARRIVE guidelines, to use the least number of mice per group for the acute single dose oral toxicity test.
Animals were divided randomly into nine groups (5 animals per group). Before the experiment, the body weight (BW) of all mice was recorded. All mice were made to fast for 24 h and treated once (day zero) then carefully monitored for 14 days.
Normal control group: mice received saline orally once;
Negative control group: mice received vehicle (DMSO) orally once;
Positive control group: mice were injected with Dox (15 mg/kg BW, i.p.) once.
Isatin-sulfonamide-derivative-compound-treated groups (2a, 3a, 3d and 4b, 4c and 4d) of mice received 250 mg/kg BW of each orally once.
The animals’ BWs were recorded at the end of the 14 days of observation. Blood samples were collected from the retro-orbital plexus and allowed to clot. Sera were prepared by centrifugation at 4000 rpm for 15 min and then kept frozen at − 80 °C for liver and kidney function tests (LFTs and KFTs). Thereafter, mice were deprived of food overnight, euthanized, and sacrificed by cervical dislocation. Liver and kidney tissues were collected, washed with ice-cold saline, and weighed. Excised weighed livers and kidneys were fixed in a suitable buffer for histological examination.
Liver and kidney tissues were fixed in 10% neutral buffered formaldehyde overnight and then embedded in paraffin, […] in serial grades of alcohols, cleared in xylene, and were subjected to […], where 4 μm thick tissue sections were cut by rotatory microtome. Tissue sections were stained with hematoxylin and eosin (H and E) for histological examination using full HD light microscopic imaging system (Leica Microsystems GmbH, Wetzlar, Germany). Standard procedures for sample fixation and staining were done as previously described.

[4] = test system: HepG2 cells; assay: Cell cycle analysis by flow cytometry (PI staining); assay type: cell-based, human; details: for %Cell Cycle Arrest/Phase %G0-G1 / %Cell Cycle Arrest/Phase %G2-M / %Cell Cycle Arrest/Phase %S / %Cell Cycle Arrest/Phase %pre-G1: HepG2, 5 µM, 48 h
Procedure: In 6-well plate, HepG2 (1 × 10^5 cells per well) were treated with either (0.1% DMSO) vehicle or 5 μM of 3a, 4b, and 4c compounds. After 48 h incubation, cells were harvested and fixed for 12 h using ice-cold 70% ethanol at 4 °C. Ethanol was removed and cells were washed by PBS and incubated for 30 min at 37 °C in 0.5 mL of PBS containing 1 mg/mL RNase. Then, cells were stained for 30 min with PI in the dark and the DNA content was determined using flow cytometer.

[5] = test system: EGFR; assay: EGFR level in HepG2 cell lysate (ELISA); assay type: cell-based, human; details: HepG2 treated at IC50, 48 h
Procedure: (§1) As previously described, with little modification, HepG2 cells were cultured in T25 flask until they reached 30% confluency. […] After treatment, cells were washed by PBS, trypsinized and centrifuged at 10,000 rpm. The formed pellets were washed twice with PBS and lysed in 1 mL ice-cold radio immunoprecipitation assay (RIPA) lysis buffer (50 mM Tris-HCl, pH 8.0, 150 mM NaCl, 1% Triton X-100, 0.5% sodium deoxycholate, 0.1% sodium dodecyl sulfate) and kept on ice for 20 min. Then, the mixture was centrifuged at 15,000 rpm for 15 min to remove any cell debris. The cell lysate was aliquoted and stored at −80 °C for determination of protein using Pierce BCA Protein Assay Kit (Thermo Fisher Scientific, Waltham/Boston, USA) according to manufacturer’s recommendations and determination of other biochemical parameters including EGFR, urokinase Plasminogen Activator (uPA), B-Cell Lymphoma-2 (Bcl-2), heparanase, and oxidative stress markers (glutathione; GSH and malonaldehyde; MDA).
(§2) Levels of EGFR [37] and heparanase in cell lysate were investigated using commercially available enzyme-linked immunosorbent assay (ELISA) kits supplied by Abcam (Cat. No. ab269558, ab256401, respectively). Levels of uPA [39] were measured using ELISA kit supplied by Creative Diagnostics (New York, USA, Cat. No. DEIA1630). Bcl-2 levels were determined using ELISA kit supplied by Zymed Laboratories, Carlsbad, California (Cat. No. 99-0042). Briefly, standards and samples were added to corresponding 96-well plate coated with suitable antibody. After the washing step, biotinylated anti-human antibody was added to each well. After washing away unbound biotinylated antibody, horseradish peroxidase (HRP)-conjugated streptavidin was pipetted into each well. A peroxidase substrate solution was added to all wells, after washing, and the color developed was proportionate to the amount of EGFR bound. Finally, the stop solution was added and the color intensity was measured at 450 nm.

[6] = test system: urokinase Plasminogen Activator (uPA); assay: uPA level in HepG2 cell lysate (ELISA); assay type: cell-based, human; details: HepG2 treated at IC50, 48 h
Procedure: as §1, §2

[7] = test system: B-Cell Lymphoma-2 (Bcl-2); assay: Bcl-2 level in HepG2 cell lysate (ELISA); assay type: cell-based, human; details: HepG2 treated at IC50, 48 h
Procedure: as §1, §2

[8] = test system: heparanase; assay: Heparanase level in HepG2 cell lysate (ELISA); assay type: cell-based, human; details: HepG2 treated at IC50, 48 h
Procedure: as §1, §2

[9] = test system: glutathione (GSH); assay: GSH level in HepG2 cell lysate (DTNB method); assay type: cell-based, human; details: HepG2 treated at IC50, 48 h
Procedure: as §1
Glutathione levels were determined using GSH Biodiagnostics kit (Cairo, Egypt). The method is based on the reduction of 5,5′dithiobis (2-nitrobenzoic acid) (DTNB) with glutathione (GSH) to produce a yellow compound. The reduced chromogen is directly proportional to GSH concentration and its absorbance was measured at 405 nm.

[10] = test system: malonaldehyde (MDA); assay: MDA level in HepG2 cell lysate (TBA method); assay type: cell-based, human; details: HepG2 treated at IC50, 48 h
Procedure: as §1
Levels of MDA, the marker of lipid peroxidation, were measured by thiobarbituric acid (TBA) method. TBA reacts with MDA in an acidic medium at temperature of 95 °C for 30 min to form colored thiobarbituric acid reactive (TBAR) product, the absorbance of which was measured at 534 nm. The MDA kit was purchased from Biodiagnostics, Cairo, Egypt.

SMILES | CC50 at 48 h [1] | viability at 48 h, 100 p.p.m (μg/mL) [1] | Effect towards the noncancerous cell line (RPE1) [2] | S.ALT [3] | S.AST [3] | S.Creatinine [3] | S.D.Bilirubin [3] | S.T.Bilirubin [3] | S.Urea [3] | Histopathology of liver and kidney tissues (H and E) versus control groups [3] | Kidney histology (H and E photomicrographs) [3] | Liver histology (H and E photomicrographs) [3] | %Cell Cycle Arrest/Phase %G0-G1 [4] | %Cell Cycle Arrest/Phase %G2-M [4] | %Cell Cycle Arrest/Phase %S [4] | %Cell Cycle Arrest/Phase %pre-G1 [4] | EGFR level in cell lysate [5] | Bcl-2 level in cell lysate [7] | Heparanase level in cell lysate [8] | GSH level in cell lysate [9] | further results
CC(=O)Nc1cccc(C(=O)C=C2C(=O)Nc3ccc(S(=O)(=O)N4CCCCC4)cc32)c1 [Compound 4c, N-(3-(2-(2-oxo-5-(piperidin-1-ylsulfonyl)indolin-3-ylidene)acetyl)phenyl)acetamide] | > 100 µM | 80.7% | non-cytotoxic effect | 28.41 ± 0.28 ^^ U/L | 37.35 ± 1.47 ^^ U/L | 0.79 ± 0.04 ^^ mg/dL | 0.16 ± 0.007 ^^ mg/dL | 0.73 ± 0.014 ^^ mg/dL | 55.76 ± 5.64 ^^ mg/dL | no differences in the hepatic or renal tissue structures | almost intact well-organized morphological features | almost intact histological features of hepatic parenchyma | 36.44% | 37.62% | 25.94% | 32.02% | 54 ± 2.4 ^a*^,b* pmol/mg protein | 3.6 ± 0.11 nmol/mg protein and 3.6 ± 0.11 ^a*^,b* nmol/mg protein | 1449 ± 12.5 pmol/mg protein and 1449 ± 12.5 ^a*^,b* pmol/mg protein | 2.1 ± 0.3 ^b* µmol/mg protein | Survival over the treatment period (14 days) [3]: survived; Physical or abnormal changes (body weight, skin, fur, eyes, behavior, overall appearance) [3]: No physical or abnormal changes were observed; G2-M arrest, fold higher compared to the negative control ([4]; HepG2, negative control 7.1%): 5.30 fold; uPA level in cell lysate [6]: 1729 ± 38 nmol/mg protein and 1729 ± 38 ^a*^,b* nmol/mg protein; MDA level in cell lysate [10]: 14.5 ± 1.4 µmol/mg protein
CC(=O)Nc1ccc(C(=O)C=C2C(=O)Nc3ccc(S(=O)(=O)N4CCCCC4)cc32)cc1 [Compound 4b, N-(4-(2-(2-oxo-5-(piperidin-1-ylsulfonyl)indolin-3-ylidene)acetyl)phenyl)acetamide] | > 100 µM | 66.4% | non-cytotoxic effect | 27.95 ± 0.34 ^^ U/L | 35.18 ± 0.47 ^^ U/L | 0.88 ± 0.06 ^^ mg/dL | 0.17 ± 0.001 ^^ mg/dL | 0.70 ± 0.013 ^^ mg/dL | 62.60 ± 3.64 ^^ mg/dL | no differences in the hepatic or renal tissue structures | almost intact histological features of renal parenchyma | apparently intact hepatocytes | 41.25% | 5.49% | 53.26% | 28.14% | 87.49 ± 3.4 ^a*^,b* pmol/mg protein | 2.5 ± 0.04 nmol/mg protein and 2.5 ± 0.04 ^a,b* nmol/mg protein | 1827 ± 30 pmol/mg protein and 1827 ± 30 ^a*^, b* pmol/mg protein | 1.1 ± 0.7 µmol/mg protein | Survival over the treatment period (14 days) [3]: survived; Physical or abnormal changes (body weight, skin, fur, eyes, behavior, overall appearance) [3]: No physical or abnormal changes were observed; uPA level in cell lysate [6]: 1916 ± 40 nmol/mg protein and 1916 ± 40 ^a*^,b* nmol/mg protein; MDA level in cell lysate [10]: 3.7 ± 0.4 µmol/mg protein and 3.7 ± 0.4 ^a*^,b* µmol/mg protein
COc1cccc2c1C(=O)c1c(O)c3c(c(O)c1C2=O)C[C@@](O)(C(=O)CO)C[C@@H]3O[C@H]1C[C@H](N)[C@H](O)[C@H](C)O1 [Doxorubicin, reference compound] |  |  |  | 52.97 ± 0.92 *^,# U/L | 46.93 ± 0.30 *^,# U/L | 1.57 ± 0.02 *^,# mg/dL | 0.36 ± 0.026 *^,# mg/dL | 1.45 ± 0.072 mg/dL | 83.27 ± 0.95 *^,# mg/dL | hepatic and renal pathology were obvious | dilatation of the cortical tubular segments | hepatocellular necrotic changes | 29.74% | 39% | 31.26% | 42.38% | 27.5 ± 1.7 ^a* pmol/mg protein | 1.7 ± 0.10 ^a* nmol/mg protein | 902.1 ± 21 ^a* pmol/mg protein | 0.8 ± 0.1 ^a* µmol/mg protein | uPA level in cell lysate ([6]; listed as Dox): 1244 ± 18 nmol/mg protein; uPA level in cell lysate ([6]; listed as Positive): 1244 ± 18 ^a* nmol/mg protein; MDA level in cell lysate ([10]; listed as Dox): 18.5 ± 1.5 µmol/mg protein; MDA level in cell lysate ([10]; listed as Positive): 18.5 ± 1.5 ^a* µmol/mg protein
